Data from PMC9071123 (PLoS Neglected Tropical Diseases, 2022).
Several values for one entry are separate records, joined by “and”; a condition that tells them apart may be missing. Equal values may be shown once. Where a name gives a salt, the structure may show the parent alone. Read-outs that look alike come from different tables or passages of the source.

Assays:
in vitro [1] = conditions: African green monkey
SARS-CoV-2 [2] = test: microbe, parasite or virus in culture; assay type: cell-based, SARS-CoV-2 (WIV-04); conditions: Severe acute respiratory syndrome coronavirus 2, Caco-2, 36 h
Vero E6 cells [3] = conditions: African green monkey, 36 h
SARS-CoV-2 [4] = test: microbe, parasite or virus in culture; assay type: cell-based, SARS-CoV-2 (WIV-04); conditions: for EC50: Severe acute respiratory syndrome coronavirus 2, Vero C1008, 36 h
in vitro [5] = conditions: human
SARS-CoV-2 [6] = test: Virus attachment assay in Vero E6 cells; conditions: 10 μM, Vero E6, 4°C 1 h
Protocol: After synchronized adsorption for 1 h, the unbound SARS-CoV-2 virions were removed by PBS washing, and the relative levels of bound SARS-CoV-2 virions were measured by qRT-PCR assay.

[7] = test system: Renilla luciferase (Rluc) replicon of SARS-CoV-2; assay type: cell-based
[8] = test system: SARS-CoV-2 S-mediated cell-cell fusion; assay type: cell-based
[9] = test system: VSV-delG-Rluc-SARS-CoV-2-S pseudovirus; assay type: cell-based; conditions: 10 μM
Caco2 cells = conditions: human, 36 h
Vero E6 cells [10] = test: Cytotoxicity CCK8 assay, Vero E6
[11] = Cytotoxicity CCK8 assay, Vero E6; conditions: African green monkey, Vero E6 cells
SARS-CoV-2 [12] = conditions: previous study ref 19; cited from earlier work

**Q.** Which CC50 at 36 h (in vitro [1]) does the source give for `COc1cc2c3cc1Oc1c(OC)c(OC)cc4c1[C@@H](Cc1ccc(O)c(c1)Oc1ccc(cc1)C[C@@H]3N(C)CC2)N(C)CC4` [Berbamine hydrochloride] here?
**A.** Its CC50 at 36 h is 66.9 µM.

**Q.** And the EC50 (SARS-CoV-2 [2])?
**A.** The EC50 was 1.89 µM.

**Q.** What about the “%inhibiton, mean (CC50 data, CCK-8)” value (Vero E6 cells [3]; 0.3125 μM) of the same compound?
**A.** Its value is -6.065%.

**Q.** What about the “%inhibiton, mean (CC50 data, CCK-8)” value (Vero E6 cells [3]; 0.625 μM) of the same compound?
**A.** The value was -4.636%.

**Q.** What about the “%inhibiton, mean (CC50 data, CCK-8)” value (Vero E6 cells [3]; 1.25 μM) of the same compound?
**A.** The value was -0.8416%.

**Q.** What about the “%inhibiton, mean (CC50 data, CCK-8)” value (Vero E6 cells [3]; 2.5 μM) of the same compound?
**A.** Its value is -0.7911%.

**Q.** And the “%inhibiton, mean (CC50 data, CCK-8)” value (Vero E6 cells [3]; 5 μM)?
**A.** The value was -7.026%.

**Q.** What about the “%inhibiton, mean (CC50 data, CCK-8)” value (Vero E6 cells [3]; 10 μM) of the same compound?
**A.** The value was -8.006%.

**Q.** What about the “%inhibiton, mean (CC50 data, CCK-8)” value (Vero E6 cells [3]; 20 μM) of the same compound?
**A.** Its value is 1.038%.

**Q.** What about the “%inhibiton, mean (CC50 data, CCK-8)” value (Vero E6 cells [3]; 40 μM) of the same compound?
**A.** Its value is 73.2674%.

**Q.** What about the “%inhibiton, mean (CC50 data, CCK-8)” value (Vero E6 cells [3]; 80 μM) of the same compound?
**A.** The value was 78.8829%.

**Q.** And the EC50 (SARS-CoV-2 [4])?
**A.** Its EC50 is 1.73 µM.

**Q.** What about the CC50 at 36 h (in vitro [5]) of the same compound?
**A.** The CC50 at 36 h was 31.9 µM.

**Q.** What about the “cell-attached viral RNA copies versus DMSO control group” value (SARS-CoV-2 [6]) of the same compound?
**A.** The value was “no significant difference”.

**Q.** What about the “Viral copies (Normalized to DMSO), mean” value (SARS-CoV-2 [6]; MOI 0.05 (DMSO = 100)) of the same compound?
**A.** Its value is 94.7359.

**Q.** What about the “replicon luciferase signal, drug treatment versus DMSO” value [7] of the same compound?
**A.** Its value is “no significant difference”.

**Q.** What about the “inhibition of S-mediated cell-cell fusion (syncytial phenotype)” value (“inhibition … (syncytial phenotype)” below) [8] of the same compound?
**A.** Its value is “little or no such syncytial phenotype was observed”.

**Q.** What about the “reduction of intracellular luciferase activity compared to DMSO treatment” value ([9]; Vero E6, 24 h post pseudovirus infection) of the same compound?
**A.** The value was “about 10 fold”.

**Q.** And the “intracellular luciferase activity, mean” value ([9]; Vero E6, 24 h post-infection (DMSO mean 389736))?
**A.** Its value is 47678.5.

**Q.** And the “%inhibiton, mean (CC50 data, CCK-8)” value (Caco2 cells; 0.3125 μM)?
**A.** Its value is -11.728%.

**Q.** And the “%inhibiton, mean (CC50 data, CCK-8)” value (Caco2 cells; 0.625 μM)?
**A.** The value was -16.6504%.

**Q.** What about the “%inhibiton, mean (CC50 data, CCK-8)” value (Caco2 cells; 1.25 μM) of the same compound?
**A.** Its value is -15.2704%.

**Q.** What about the “%inhibiton, mean (CC50 data, CCK-8)” value (Caco2 cells; 2.5 μM) of the same compound?
**A.** The value was -14.7661%.

**Q.** And the “%inhibiton, mean (CC50 data, CCK-8)” value (Caco2 cells; 5 μM)?
**A.** The value was -19.7288%.

**Q.** And the “%inhibiton, mean (CC50 data, CCK-8)” value (Caco2 cells; 10 μM)?
**A.** The value was -18.7648%.

**Q.** What about the “%inhibiton, mean (CC50 data, CCK-8)” value (Caco2 cells; 20 μM) of the same compound?
**A.** Its value is -1.748%.

**Q.** And the “%inhibiton, mean (CC50 data, CCK-8)” value (Caco2 cells; 40 μM)?
**A.** Its value is 50.1206%.

**Q.** And the “%inhibiton, mean (CC50 data, CCK-8)” value (Caco2 cells; 80 μM)?
**A.** Its value is 67.6973%.

**Q.** What does the source list for `COc1ccc2cc1Oc1ccc(cc1)C[C@H]1c3c(cc4c(c3Oc3cc5c(cc3OC)CCN(C)[C@@H]5C2)OCO4)CCN1C` [Cepharanthine, cepharanthine]?
**A.** %inhibiton, mean (viral RNA genomic copy number) (SARS-CoV-2 [4]): 99.5371% and 98.6265% and 86.3235% and 71.2349% and 67.6803%; inhibition against SARS-CoV-2 infection (SARS-CoV-2 [4]): dose-dependent inhibition; selective index (SI) (SARS-CoV-2 [4]): >8.93; EC50 (SARS-CoV-2 [4]): 2.24 µM; %inhibiton, mean (CC50 data, CCK-8) (Vero E6 cells [10]; Vero-E6, 0.078125 μM): 9.153%; %inhibiton, mean (CC50 data, CCK-8) (Vero E6 cells [10]; Vero-E6, 0.15625 μM): 9.469%; %inhibiton, mean (CC50 data, CCK-8) (Vero E6 cells [10]; Vero-E6, 0.3125 μM): 5.3801%; %inhibiton, mean (CC50 data, CCK-8) (Vero E6 cells [10]; Vero-E6, 0.625 μM): 1.292%; %inhibiton, mean (CC50 data, CCK-8) (Vero E6 cells [10]; Vero-E6, 1.25 μM): 5.646%; %inhibiton, mean (CC50 data, CCK-8) (Vero E6 cells [10]; Vero-E6, 2.5 μM): 5.87%; %inhibiton, mean (CC50 data, CCK-8) (Vero E6 cells [10]; Vero-E6, 5 μM): 7.302%; %inhibiton, mean (CC50 data, CCK-8) (Vero E6 cells [10]; Vero-E6, 10 μM): 3.537%; %inhibiton, mean (CC50 data, CCK-8) (Vero E6 cells [10]; Vero-E6, 20 μM): 2.215%; CC50 at 36 h [11]: > 20 µM; inhibition of the SARS-CoV-2 induced cytopathic effect (SARS-CoV-2 [12]): efficiently inhibit; inhibition of S-mediated cell-cell fusion (syncytial phenotype) [8]: apparent inhibitory effects

**Q.** Which “inhibition of the SARS-CoV-2 induced cytopathic effect” value (SARS-CoV-2 [12]) does the source give for `COc1cc2c(cc1OC)[C@@H](Cc1ccc(O)c(Oc3cc4c(cc3OC)CCN(C)[C@@H]4Cc3ccc(O)cc3)c1)N(C)CC2` [liensinine] here?
**A.** Its value is “efficiently inhibit”.

**Q.** And the “inhibition … (syncytial phenotype)” value [8]?
**A.** The value was “apparent inhibitory effects”.

**Q.** For `COc1ccc(C[C@@H]2c3cc(Oc4cc(C[C@@H]5c6cc(O)c(OC)cc6CCN5C)ccc4O)c(OC)cc3CCN2C)cc1` [isoliensinine], which “inhibition of the SARS-CoV-2 induced cytopathic effect” value (SARS-CoV-2 [12]) is on record?
**A.** Its value is “efficiently inhibit”.

**Q.** And the “inhibition … (syncytial phenotype)” value [8]?
**A.** The value was “apparent inhibitory effects”.

**Q.** Which results are given for `COc1ccc2cc1Oc1ccc(cc1)C[C@H]1c3cc(c(OC)cc3CCN1C)Oc1c(OC)c(OC)cc3c1[C@H](C2)N(C)CC3` [Tetrandrine, tetrandrine]?
**A.** inhibition against SARS-CoV-2 infection (SARS-CoV-2 [4]): dose-dependent inhibition; selective index (SI) (SARS-CoV-2 [4]): >6.92; EC50 (SARS-CoV-2 [4]): 2.89 µM; %inhibiton, mean (CC50 data, CCK-8) (Vero E6 cells [10]; Vero-E6, 0.078125 μM): 5.4651%; %inhibiton, mean (CC50 data, CCK-8) (Vero E6 cells [10]; Vero-E6, 0.15625 μM): 9.075%; %inhibiton, mean (CC50 data, CCK-8) (Vero E6 cells [10]; Vero-E6, 0.3125 μM): 8.155%; %inhibiton, mean (CC50 data, CCK-8) (Vero E6 cells [10]; Vero-E6, 0.625 μM): 11.3125%; %inhibiton, mean (CC50 data, CCK-8) (Vero E6 cells [10]; Vero-E6, 1.25 μM): 11.2558%; %inhibiton, mean (CC50 data, CCK-8) (Vero E6 cells [10]; Vero-E6, 2.5 μM): 4.063%; %inhibiton, mean (CC50 data, CCK-8) (Vero E6 cells [10]; Vero-E6, 5 μM): 5.628%; %inhibiton, mean (CC50 data, CCK-8) (Vero E6 cells [10]; Vero-E6, 10 μM): -1.303%; %inhibiton, mean (CC50 data, CCK-8) (Vero E6 cells [10]; Vero-E6, 20 μM): -2.23%; CC50 at 36 h [11]: > 20 µM; inhibition of the SARS-CoV-2 induced cytopathic effect (SARS-CoV-2 [12]): efficiently inhibit; inhibition of S-mediated cell-cell fusion (syncytial phenotype) [8]: apparent inhibitory effects

**Q.** Which results are given for `COc1ccc2cc1Oc1ccc(cc1)C[C@H]1c3cc(c(OC)cc3CCN1C)Oc1c(O)c(OC)cc3c1[C@H](C2)N(C)CC3` [Fangchinoline, fangchinoline]?
**A.** inhibition against SARS-CoV-2 infection (SARS-CoV-2 [4]): dose-dependent inhibition; selective index (SI) (SARS-CoV-2 [4]): >9.57; EC50 (SARS-CoV-2 [4]): 2.09 µM; %inhibiton, mean (CC50 data, CCK-8) (Vero E6 cells [10]; Vero-E6, 0.078125 μM): 7.966%; %inhibiton, mean (CC50 data, CCK-8) (Vero E6 cells [10]; Vero-E6, 0.15625 μM): 4.163%; %inhibiton, mean (CC50 data, CCK-8) (Vero E6 cells [10]; Vero-E6, 0.3125 μM): 4.478%; %inhibiton, mean (CC50 data, CCK-8) (Vero E6 cells [10]; Vero-E6, 0.625 μM): 8.257%; %inhibiton, mean (CC50 data, CCK-8) (Vero E6 cells [10]; Vero-E6, 1.25 μM): 10.5597%; %inhibiton, mean (CC50 data, CCK-8) (Vero E6 cells [10]; Vero-E6, 2.5 μM): 7.088%; %inhibiton, mean (CC50 data, CCK-8) (Vero E6 cells [10]; Vero-E6, 5 μM): 14.0504%; %inhibiton, mean (CC50 data, CCK-8) (Vero E6 cells [10]; Vero-E6, 10 μM): 8.415%; %inhibiton, mean (CC50 data, CCK-8) (Vero E6 cells [10]; Vero-E6, 20 μM): 0.3804%; CC50 at 36 h [11]: > 20 µM; inhibition of the SARS-CoV-2 induced cytopathic effect (SARS-CoV-2 [12]): efficiently inhibit; inhibition of S-mediated cell-cell fusion (syncytial phenotype) [8]: apparent inhibitory effects
